From publication PMC10172623 (Computational and Structural Biotechnology Journal, 2023)

Columns and labels:
[1] = molecular target: TylF (Streptomyces fradiae, UniProt Q9S4D5, Y139F); experiment: biochemical
[2] = molecular target: TylF (Streptomyces fradiae, UniProt Q9S4D5); experiment: biochemical
Sequence of TylF (Streptomyces fradiae, UniProt Q9S4D5) (Q9S4D5 whole entry): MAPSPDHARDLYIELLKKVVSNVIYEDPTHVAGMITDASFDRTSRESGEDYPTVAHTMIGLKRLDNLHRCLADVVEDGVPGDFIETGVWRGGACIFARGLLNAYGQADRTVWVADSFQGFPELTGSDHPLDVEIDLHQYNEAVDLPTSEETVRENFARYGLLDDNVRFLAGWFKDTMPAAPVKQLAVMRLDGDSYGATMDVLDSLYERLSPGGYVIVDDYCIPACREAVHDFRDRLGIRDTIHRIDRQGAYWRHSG

Sequence of TylF (Streptomyces fradiae, UniProt Q9S4D5, Y139F) (Q9S4D5 whole entry Y139F): as the sequence (Q9S4D5 whole entry) above, with Y139F counted along it

SMILES: C[S+](CC[C@H](N)C(=O)O)C[C@H]1O[C@@H](n2cnc3c(N)ncnc32)[C@H](O)[C@@H]1O (some centres unmarked) [SAM]
- Kd [1]: 265 ± 24.3 µM
- Kd [2]: 162 ± 91.6 µM
